Assay results: patent publication US20070212360A1, “Modulation of mitochondrial oxygen consumption for therapeutic purposes” (priority 2006, published 2007)

Legend:
[1] = system: RKO and RKOShHIF1α tumors; assay: Tumor growth delay, RKO and RKOShHIF1α xenografts; format: in vivo, mouse
Description: FIG. 10. Pharmacologic inhibition of HIF1 or PDK1 enhances the response of tumor xenografts to the hypoxic cytotoxin tirapazamine. For all experiments, treatment was initiated when the mean tumor volume was 100-200 mm^3. (a) RKO tumor bearing mice were treated with 0.12 mg/kg echinomycin ip followed by 30 mg/kg tirapazamine ip at 24 hours, followed by a rest day for 3 cycles. Single agents were given at the same dose, on the same schedule. (b) RKO tumor bearing mice were treated with 50 mg/kg DCA ip followed by 20 mg/kg tirapazamine ip at 4 hours daily for 14 days. Single agents were given at the same dose, on the same schedule. (c,d,e) RKO (c), RKOShHIF1α (d), or Su.86 (e) tumor bearing mice were treated with echinomycin plus tirapazamine as described above for 6 cycles (Ech+TPZ), or tirapazamine followed by echinomycin at 24 hours followed by a rest day for 6 cycles (TPZ+Ech). For all experiments, arrows indicate when treatment was stopped.
Cell lines and tumor xenografts. RKO human colon carcinoma cells and Su.86 human pancreatic carcinoma cells were obtained from the American Type Culture Collection (ATCC, Manassas, Va.). The RKOShHIF1α cell line in which HIF1α is stably knocked down by shRNA has been described previously. RKO and immortalized MEF cells were grown in Dulbecco's Modified Eagle's Media (DMEM) supplemented with 10% fetal bovine serum (FBS). Su.86 cells were grown in RPMI 1640 medium supplemented with 10% FBS. Cells were exposed to hypoxia by placing culture dishes into an Invivo2 humidified hypoxia workstation (Ruskin Technologies, Bridgend, UK) at 0.5% O2. Echinomycin (a gift of A. Giaccia, Stanford University) was included in the media at the indicated concentrations. Tumor xenografts were established by injecting 5×10^6 cells for the RKO lines or 1×10^7 cells for the Su.86 line sc into the flanks of 6-8 week old female nude mice. To monitor tumor growth, caliper measurements were made of two perpendicular diameters, and the formula (d1)(d2)(d2)(0.52) was used to calculate tumor volume. […]

[2] = system: HIF1 targets PDK1, Bnip3, and Bnip3L in RKO and Su.86 human tumor cells; assay: Western blot of HIF1 target proteins in hypoxic tumor cells; format: cell-based; conditions: RKO and Su.86 cells, 0.5% O2 24 h, 2 ng/ml echinomycin
Description: FIG. 7. Inhibition of HIF1 and PDK1 increases oxygen consumption in vitro and in vivo. (a) Western blots of extracts from RKO and Su.86 cells exposed to normoxia (N) or hypoxia (H) (0.5% O2) for 24 h in the presence or absence of 2 ng/ml echinomycin probed for the indicated proteins. (b) Oxygen consumption rates of RKO and RKOShHIF1α cells (left) and Su.86 cells (right) after 24 h treatment with normoxia or hypoxia (0.5% O2) with or without 2 ng/ml echinomycin. Data are normalized to normoxic samples. (c) Relative oxygen consumption of RKO cells treated with hypoxia (0.5% O2) for 24 h in the presence of increasing concentrations of echinomycin. (d) Oxygen consumption rates of freshly explanted tumor tissue from RKO (n=16) and RKOShHIF1α (n=8) xenografts. (e) Oxygen consumption rates of RKO and RKOShHIF1 tumors from mice treated with 0.12 mg/kg echinomycin ip 24 h prior (n=8), or 50 mg/kg DCA ip 4 h prior (n=8). […]
Western blots. In brief, cells were harvested directly in RIPA buffer containing protease inhibitors, protein concentrations were quantified (Pierce), 25-50 μg of total protein was electrophoresed on a reducing Tris-Tricine gel, and electroblotted to PVDF membrane. […] Primary antibodies were detected with species-specific secondary antibodies labeled with Alkaline Phosphatase (Vector labs) (1:3000) and visualized with ECF (Amersham) on a Storm 860 phosphoimager (Molecular Devices).

RKO and RKOShHIF1α cells = assay: In vitro oxygen consumption of RKO and RKOShHIF1α cells; format: cell-based, human; conditions: 0.5% O2 24 h
Description: FIG. 7. Inhibition of HIF1 and PDK1 increases oxygen consumption in vitro and in vivo. (a) Western blots of extracts from RKO and Su.86 cells exposed to normoxia (N) or hypoxia (H) (0.5% O2) for 24 h in the presence or absence of 2 ng/ml echinomycin probed for the indicated proteins. (b) Oxygen consumption rates of RKO and RKOShHIF1α cells (left) and Su.86 cells (right) after 24 h treatment with normoxia or hypoxia (0.5% O2) with or without 2 ng/ml echinomycin. Data are normalized to normoxic samples. (c) Relative oxygen consumption of RKO cells treated with hypoxia (0.5% O2) for 24 h in the presence of increasing concentrations of echinomycin. (d) Oxygen consumption rates of freshly explanted tumor tissue from RKO (n=16) and RKOShHIF1α (n=8) xenografts. (e) Oxygen consumption rates of RKO and RKOShHIF1 tumors from mice treated with 0.12 mg/kg echinomycin ip 24 h prior (n=8), or 50 mg/kg DCA ip 4 h prior (n=8). Data is normalized to PBS treated controls (n=8-16). (*) indicate a significant difference relative to control (p<0.05).
Oxygen consumption measurements. Cells were trypsinized and suspended at 3×10^6 to 6×10^6 cells per ml in normoxic DMEM+10% FBS. Oxygen consumption was measured in a 0.5 ml volume using an Oxytherm electrode unit (Hansatech, Norfolk, UK). […] Oxygen consumption was measured as above in a 1 ml volume and normalized to tissue weight.

**Q.** Which “tumor growth delay of combination compared to single agents, RKO tumors” value ([1]; 0.12 mg/kg echinomycin ip followed at 24 h by 30 mg/kg tirapazamine ip, rest day, 3 cycles) does the source give for CS[C@H]1SC[C@H]2C(=O)N(C)[C@@H](C(C)C)C(=O)OC[C@@H](NC(=O)c3cnc4ccccc4n3)C(=O)N[C@@H](C)C(=O)N(C)[C@@H]1C(=O)N(C)[C@@H](C(C)C)C(=O)OC[C@@H](NC(=O)c1cnc3ccccc3n1)C(=O)N[C@@H](C)C(=O)N2C [echinomycin] here?
**A.** greater than additive

**Q.** And the “effect on tumor growth, RKOShHIF1 tumors” value ([1]; echinomycin plus tirapazamine, regardless of the order the drugs were given, 6 cycles)?
**A.** no significant effect

**Q.** And the “effect on growth of RKO tumors, reversed schedule” value ([1]; tirapazamine followed by echinomycin at 24 hours, 6 cycles, compared to echinomycin followed by tirapazamine)?
**A.** little effect

**Q.** What about the “hypoxic induction of PDK1, Bnip3, and Bnip3L (immunoblot)” value [2] of the same compound?
**A.** blocked

**Q.** And the “effect on HIF1-dependent reduction in oxygen consumption in parental cells” value (RKO and RKOShHIF1α cells; RKO parental cells, increasing concentrations)?
**A.** dose-dependent block

**Q.** What about the “effect on oxygen consumption in RKOShHIF1α cells” value (RKO and RKOShHIF1α cells; RKOShHIF1α cells, 2 ng/ml) of the same compound?
**A.** no effect
